Test [1] deals with T1, Myt1 kinase (CDK1 Thr14 phosphorylation in DAOY medulloblastoma cells) (Homo sapiens, UniProt Q99640).
T1 construct: pCDK1 Thr14 AlphaLISA read-out
T1 sequence (Q99640 1-499): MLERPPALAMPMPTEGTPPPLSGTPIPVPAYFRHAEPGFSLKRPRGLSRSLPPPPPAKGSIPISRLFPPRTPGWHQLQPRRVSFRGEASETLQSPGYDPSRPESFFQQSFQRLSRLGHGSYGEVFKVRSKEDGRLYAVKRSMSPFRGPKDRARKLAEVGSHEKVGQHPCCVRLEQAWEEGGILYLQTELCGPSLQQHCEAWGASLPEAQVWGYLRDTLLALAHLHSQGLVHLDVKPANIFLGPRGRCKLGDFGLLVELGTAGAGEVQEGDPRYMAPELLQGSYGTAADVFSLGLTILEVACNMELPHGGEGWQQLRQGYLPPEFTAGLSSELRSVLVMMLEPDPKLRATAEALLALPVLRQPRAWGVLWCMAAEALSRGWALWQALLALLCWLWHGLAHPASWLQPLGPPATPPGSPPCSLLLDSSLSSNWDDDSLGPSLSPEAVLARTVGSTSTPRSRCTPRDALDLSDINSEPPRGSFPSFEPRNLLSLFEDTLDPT
Briefly: AlphaLISA assay, Myt1 kinase target engagement (phospho-CDK1 Thr14) in DAOY cells. The class given is cell-based. The conditions noted are these: 4 h treatment, read-out: CDK1 Thr14 Phosphorylation EC50. The method, then: Each of an ACHN renal cell carcinoma cell line (ATCC) and a DAOY medulloblastoma cell line, and an A427 lung cancer line were cultured in Minimum Essential Medium Eagle supplemented with 10% fetal calf serum (Sigma), 1% Penicillin-Streptomycin and 10 mM HEPES buffer (HyClone). Cell cultures were kept in a humidified incubator at 37 °C and 5% CO2. Cells were routinely tested for Mycoplasma contamination.
For target engagement assessment of Myt1 kinase inhibition, quantification of Cdk1 phosphorylated on threonine 14 was detected using the AlphaLISA® SureFire® Ultra™ Human Phospho-CDK1 (Thr14) assay (Perkin Elmer). DAOY or ACHN cells were seeded into tissue culture treated 96-well plates (VWR) to a density of 10,000 or 20,000 cells per well respectively. 24 h post seeding cells were treated for 4 h with compounds at concentrations ranging from 7 to 5000 nM. Cells were washed with PBS and lysed in 50 μl AlphaLISA lysis buffer before freezing at −80 C. Ten ul of the lysate was transferred to 384 well plates and incubated with AlphaLISA donor and acceptor beads according to the manufacturer's instructions. Dose response curves and EC50 values were calculated and visualized using GraphPad Prism version 9. Target engagement for Myt1 kinase can also be measured using the same AlphaLISA assay in OVCAR3 cells, an ovarian cancer cell line. NIH:OVCAR-3 (OVCAR3) cells are cultured in RPMI-1640 medium supplemented with 0.01 mg/ml insulin, 20% FBS, 1% Penicillin-Streptomycin and 10 mM HEPES buffer. 14,000 cells per well are seeded into 96 well tissue culture plates in full medium. Twenty-four hours post seeding, cells are treated with compound for 4 hours at concentrations ranging from 0.017 nM to 1000 nM.

Test [2] has as its target T2, recombinant human Wee1A kinase (Homo sapiens, UniProt P30291).
T2 construct: full length Wee1 kinase was expressed by baculovirus in insect cells; purchased Invitrogen PV3817; host or cells: insect cells (baculovirus)
Briefly: Wee1A kinase binding assay (LanthaScreen Eu time-resolved FRET). The conditions noted are these: 30 nM tracer 178, 5 nM Wee1A kinase, 2 nM Eu-labeled antibody; 60 minutes at room temperature; read-out: Wee1A kinase Binding IC50. An outline of the steps:
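Full-length, baculovirus-expressed GST-tagged Wee1A (5 nM) was mixed with 2 nM Eu-anti-GST antibody, 30 nM kinase tracer 178 and compound (1% DMSO). Buffer was 50 mM HEPES pH 7.5, 10 mM MgCl2, 1 mM EGTA, 0.01% Brij-35, incubated 60 min at room temperature. TR-FRET 665/615 nm emission ratios from duplicates were curve-fitted.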

Test [3] addresses T3, Wee1A kinase (CDK1 Tyr15 phosphorylation in ACHN renal cell carcinoma cells) (Homo sapiens, UniProt P30291).
T3 construct: pCDK1 Tyr15 immunofluorescence read-out
Briefly: High-content imaging of pCdk1 Y15, Wee1A kinase target engagement in ACHN cells. The conditions noted are these: 4 h treatment, nuclear positivity for pCdk1 Y15 vs DMSO control, read-out: CDK1 Tyr15 Phosphorylation EC50. The class given is cell-based. An outline of the steps: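 EC50 values come from the per-well fraction of cells with nuclear pCdk1 Y15 staining, normalised to DMSO control, by automated immunofluorescence imaging. Cells were ACHN renal carcinoma, treated 4 h with compound at 7–5,000 nM or 0.3–200 nM.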

In test [4] the target is T4, Myt1 kinase (recombinant PMYT-1) (Homo sapiens, UniProt Q99640).
T4 construct: full length PMYT-1 was expressed by baculovirus in insect cells; purchased Invitrogen A30984; host or cells: insect cells (baculovirus)
T4 sequence (Q99640 1-499): T1 sequence (Q99640 1-499)
Briefly: Myt1 kinase binding assay (LanthaScreen Eu Kinase Binding Assay). The conditions noted are these: 3 nM tracer 178, 2.5 nM PMYT-1, 1 nM Eu-labeled antibody; read-out: Myt1 kinase Binding IC50. Summed up:
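Compound binding to Myt1 kinase was assessed using the LanthaScreen Eu Kinase Binding Assay. This europium-based binding format was applied to quantify how strongly each compound bound to the Myt1 enzyme, and the binding affinity was reported for each compound as an IC50 value.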

Test [5] relates to ACHN cells. Briefly: Cell Titer Glo viability assay, ACHN cells. The test is classed as cell-based. The conditions noted are these: Homo sapiens, 144 h, absolute EC50. Summed up:
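Cells grown in MEM with 10% FCS were seeded at 500 (A427), 400 (ACHN) or 250 (DAOY) per well and treated the next day with compound at 17 to 10 000 nM. Viability relative to untreated control was read at 144 h by CellTiter-Glo 2.0.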

T3 sequence (P30291 whole entry): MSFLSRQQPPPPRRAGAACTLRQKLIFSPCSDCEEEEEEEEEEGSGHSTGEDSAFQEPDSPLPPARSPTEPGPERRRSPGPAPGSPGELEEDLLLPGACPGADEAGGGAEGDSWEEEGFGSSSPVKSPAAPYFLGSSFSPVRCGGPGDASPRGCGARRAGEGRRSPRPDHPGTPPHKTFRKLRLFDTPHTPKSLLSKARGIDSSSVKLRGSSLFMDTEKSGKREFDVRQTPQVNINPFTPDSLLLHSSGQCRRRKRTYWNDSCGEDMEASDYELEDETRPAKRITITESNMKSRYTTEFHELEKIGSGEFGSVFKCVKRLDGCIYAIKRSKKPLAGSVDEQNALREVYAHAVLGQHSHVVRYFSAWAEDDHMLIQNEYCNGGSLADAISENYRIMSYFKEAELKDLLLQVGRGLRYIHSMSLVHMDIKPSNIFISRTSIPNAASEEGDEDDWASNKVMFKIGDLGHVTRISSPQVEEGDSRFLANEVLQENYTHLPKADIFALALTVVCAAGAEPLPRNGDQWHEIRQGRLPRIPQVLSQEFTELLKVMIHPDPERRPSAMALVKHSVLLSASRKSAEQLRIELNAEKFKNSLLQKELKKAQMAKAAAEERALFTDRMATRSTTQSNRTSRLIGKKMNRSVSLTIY
T2 sequence (P30291 whole entry): as above

Take `C=CCn1c(=O)c2cnc(Nc3cnn(C)c3)nc2n1-c1cccc(OC2CC3CCCC(C2)N3C)n1` (centres unmarked) [Compound 194, 2-allyl-1-{6-(9-methyl-9-azabicyclo[3.3.1]non-3-yloxy)-2-pyridyl}-6-(1-methyl-4-pyrazolylamino)-1,2-dihydro-3H-1,2,5,7-tetraazainden-3-one]: the EC50 was > 1000 nM in test [1] and 100 to 500 nM in test [3]. Also, the IC50 in test [2] was < 10 nM; in test [4] it was < 20 nM.

In the case of `C=CCn1c(=O)c2cnc(Nc3ccc4sncc4c3)nc2n1-c1cccc(OC2CCNCC2)n1` [Compound 228, 2-allyl-6-(1,2-benzisothiazol-5-ylamino)-1-[6-(4-piperidyloxy)-2-pyridyl]-1,2-dihydro-3H-1,2,5,7-tetraazainden-3-one], the EC50 in test [1] was > 1000 nM; in test [3] it was 100 to 500 nM. Besides, the results for the IC50 in test [2] and in test [4] were < 10 nM and < 20 nM, respectively.

Regarding `C=CCn1c(=O)c2cnc(Nc3cccnc3)nc2n1-c1cccc(OC2CCNCC2)n1` [Compound 230, 2-allyl-1-[6-(4-piperidyloxy)-2-pyridyl]-6-(3-pyridylamino)-1,2-dihydro-3H-1,2,5,7-tetraazainden-3-one], the EC50 in test [1] and in test [3] was > 1000 nM in each case. Further, the figures for the IC50 in test [2] and in test [4] were < 10 nM and < 20 nM, respectively.

As to `C=CCn1c(=O)c2cnc(Nc3ccc4oc(C)nc4c3)nc2n1-c1cccc(OC2CCNCC2)n1` [Compound 232, 2-allyl-6-(2-methyl-1,3-benzoxazol-5-ylamino)-1-[6-(4-piperidyloxy)-2-pyridyl]-1,2-dihydro-3H-1,2,5,7-tetraazainden-3-one], the figures for the EC50 in test [1] and in test [3] were 200 to 500 nM and < 100 nM, respectively. The figures for the IC50 in test [2] and in test [4] were < 10 nM and < 20 nM, respectively.

Regarding `C=CCn1c(=O)c2cnc(Nc3ccc4nccnc4c3)nc2n1-c1cccc(OC2CCN(C)CC2)n1` [Compound 241, 2-allyl-1-[6-(1-methyl-4-piperidyloxy)-2-pyridyl]-6-(6-quinoxalinylamino)-1,2-dihydro-3H-1,2,5,7-tetraazainden-3-one], the EC50 in test [5] was ≤ 100 nM; in test [1] it was 200 to 500 nM. The values for the half-inhibitory concentration (IC50) in test [2] and in test [4] were < 10 nM and < 20 nM, respectively.

For `C=CCn1c(=O)c2cnc(Nc3ccc(N4CCSCC4)cc3)nc2n1-c1cccc(OC2CCN(C)CC2)n1` [Compound 261, 2-allyl-1-[6-(1-methyl-4-piperidyloxy)-2-pyridyl]-6-[p-(1,4-thiazinan-4-yl)phenylamino]-1,2-dihydro-3H-1,2,5,7-tetraazainden-3-one], the figures for the EC50 in test [5] and in test [1] were ≤ 100 nM and 200 to 500 nM, respectively. The IC50 in test [2] was < 10 nM; in test [4], < 20 nM.

For `C=CCn1c(=O)c2cnc(Nc3ccc4c(cnn4C(C)C)c3)nc2n1-c1cccc(OC2CCNCC2)n1` [Compound 265, 2-allyl-6-(1-isopropyl-1H-indazol-5-ylamino)-1-[6-(4-piperidyloxy)-2-pyridyl]-1,2-dihydro-3H-1,2,5,7-tetraazainden-3-one], the values for the half-maximal effective concentration (EC50) in test [1] and in test [3] were 200 to 500 nM and < 100 nM, respectively. The IC50 in test [2] is < 10 nM; in test [4] it was < 20 nM.

For the molecule `C=CCn1c(=O)c2cnc(Nc3ccc4cnoc4c3)nc2n1-c1cccc(OC2CCN(C)CC2)n1` [Compound 299, 2-allyl-6-(1,2-benzisoxazol-6-ylamino)-1-[6-(1-methyl-4-piperidyloxy)-2-pyridyl]-1,2-dihydro-3H-1,2,5,7-tetraazainden-3-one], the values for the EC50 in test [1] and in test [3] were > 1000 nM and 500 to 1000 nM, respectively. The IC50 in test [2] was < 10 nM; in test [4], 20 to 100 nM.

Turning to `CCn1c(=O)c2cnc(Nc3ccc4c(c3)ncn4C)nc2n1-c1cccc(OC2CCNCC2)n1` [Compound 318, 2-ethyl-6-((1-methyl-1H-benzo[d]imidazol-5-yl)amino)-1-(6-(piperidin-4-yloxy)pyridin-2-yl)-1,2-dihydro-3H-pyrazolo[3,4-d]pyrimidin-3-one], the EC50 in test [5] and in test [3] was > 1000 nM throughout. In addition, the IC50 in test [2] was < 10 nM; in test [4], 20 to 100 nM.

Take `C=CCn1c(=O)c2cnc(Nc3ccc4c(cnn4C)c3)nc2n1-c1cccc(O[C@H]2CCCN(C)C2)n1` [Compound 332, 1-{6-[(S)-1-methyl-3-piperidyloxy]-2-pyridyl}-2-allyl-6-(1-methyl-1H-indazol-5-ylamino)-1,2-dihydro-3H-1,2,5,7-tetraazainden-3-one]: the EC50 in test [5] is 100 to 500 nM; in test [3], < 100 nM. In addition, the IC50 in test [2] is < 10 nM; in test [4], 100 to 500 nM.

With `[2H]C([2H])([2H])c1cccc(Nc2ncc3c(=O)n(CC=C)n(-c4cccc(OC5CCNCC5)n4)c3n2)c1` [Compound 334, 2-allyl-6-((3-(methyl-d3)phenyl)amino)-1-(6-(piperidin-4-yloxy)pyridin-2-yl)-1,2-dihydro-3H-pyrazolo[3,4-d]pyrimidin-3-one], the EC50 in test [5] was ≤ 100 nM; in test [3], < 100 nM. Also, the IC50 was < 10 nM in test [2] and 20 to 100 nM in test [4].

On to `Cn1ccc2cc(Nc3ncc4c(=O)n(C)n(-c5cccc(OC6CCNCC6)n5)c4n3)ccc21` [Compound 336, 2-methyl-6-((1-methyl-1H-indol-5-yl)amino)-1-(6-(piperidin-4-yloxy)pyridin-2-yl)-1,2-dihydro-3H-pyrazolo[3,4-d]pyrimidin-3-one], for which the concentration giving a half-maximal response (EC50) in test [5] was 100 to 500 nM; in test [3] it was < 100 nM. The IC50 in test [2] is < 10 nM; in test [4], 20 to 100 nM.

In the case of `C=CCn1c(=O)c2cnc(Nc3ccc(N4CCS(=O)(=O)CC4)cc3)nc2n1-c1cccc(OC2CCN(C)CC2)n1` [Compound 369, 4-(p-{2-allyl-1-[6-(1-methyl-4-piperidyloxy)-2-pyridyl]-3-oxo-1,2-dihydro-3H-1,2,5,7-tetraazainden-6-ylamino}phenyl)-1λ^6,4-thiazinane-1,1-dione], the EC50 was > 1000 nM in test [1] and < 100 nM in test [3]. The IC50 in test [2] was < 10 nM; in test [4], < 20 nM.

`C=CCn1c(=O)c2cnc(Nc3ccc(OCCCF)cc3)nc2n1-c1cccc(OC2CCNCC2)n1` [Compound 377]: the EC50 in test [5] was ≤ 100 nM; in test [3] it was < 100 nM. In addition, the IC50 was < 10 nM in test [2] and < 20 nM in test [4].
